# US8816078B2, “Acidic gas removal by aqueous amine solvents” (Board of Regents, The University of Texas System, priority 2010, dated 2014)
# Legend:
# [1] = Heat of CO2 absorption calculated from the VLE model; assay type: physicochemical; conditions: for ΔHabs@PCO2 = 1.5 kPa: Conc. (m): MDEA/PZ 7/2, PZ 8, MEA 7, HEP 7.7, AEP 6, 2-PE 8, AMP 4.8, EDA 12, DGA 10, PZ-MPZ 4/4, MPZ 8
# Description: VLE models of CO2 partial pressure were regressed from experimental data to calculate CO2 capacity and enthalpy of CO2 absorption (ΔHabs).
# Heat of absorption was calculated from the model mentioned above by applying the following thermodynamic equation: […]
# Heat of absorption was calculated from the model mentioned above by applying the Gibbs-Helmholtz equation: […]
# The heat absorption of CO2 at a 1.5 kPa, which is an average CO2 partial pressure for lean and rich solutions, was calculated.
# [2] = Cyclic CO2 capacity calculated from the regressed VLE model; assay type: physicochemical; conditions: for CO2 Capacity: Conc. (m): MDEA/PZ 7/2, PZ 8, MEA 7, HEP 7.7, AEP 6, 2-PE 8, AMP 4.8, EDA 12, DGA 10, PZ-MPZ 4/4, MPZ 8
# [3] = Solubility and solids precipitation limits of amines in water; assay type: physicochemical
# [4] = Solubility measurements of CO2 loaded PZ/1-MPZ/1,4-DMPZ blends; assay type: physicochemical
# Description: Solubility measurements for CO2 loaded 3.9 m PZ/3.9 m 1-MPZ/0.2 m 1,4-DMPZ and 3.75 m PZ/3.75 m 1-MPZ/0.5 m 1,4-DMPZ solutions were taken to predict the solubility envelope of these blends. The solubility of the blends at varying loadings and temperatures are shown in FIG. 7 for the 3.9 m PZ/3.9 m 1-MPZ/0.2 m 1,4-DMPZ blend and in FIG. 8 for the 3.75 m PZ/3.75 m 1-MPZ/0.5 m 1,4-DMPZ blend. […] At 0° C., the 8 m blend: 3.75 m PZ/3.75 m 1-MPZ/0.5 m […] was soluble at 2° C. with a lean loading of 0.17 mol CO2/mol alkalinity, in contrast to 8 m PZ, which must be operated at loading above 0.3 to avoid solids precipitation.
# A maximum CO2 loading of 0.41 and 0.39 was obtained for the 3.9 m PZ/3.9 m 1-MPZ/0.2 m 1,4-DMPZ blend and the 3.75 m PZ/3.75 m 1-MPZ/0.5 m 1,4 DMPZ blend respectively at room temperature without any solid precipitation. Intermediary loaded solutions were prepared by appropriately mixing the rich loaded and zero loaded solutions and observed at temperatures between 0° C. and the melting point of the solution.
# [5] = CO2 absorption/desorption rate (liquid film mass transfer coefficient kg′) in the wetted wall column; assay type: physicochemical
# Text: The CO2 absorption rate of a particular amine may be useful in determining whether an amine is desirable for acidic gas removal. In general, a greater rate of CO2 absorption will allow for the use of less packing, reduced lean loading, or greater rich loading, which in turn can reduce energy consumption. The rate of CO2 absorption can be characterized as the normalized flux, kg′ (gmol/m^2-s-Pa), measured in a model contactor such as a wetted wall column. Similarly, a greater heat of CO2 desorption will reduce the energy requirement of an absorber/stripper relying upon temperature swing regeneration.
# (§1) VLE models of CO2 partial pressure were regressed from experimental data to calculate CO2 capacity and enthalpy of CO2 absorption (ΔHabs). […] MPZ and PZ-MPZ both have a slightly higher capacity than PZ. PZ-MPZ absorbs CO2 at a slightly slower rate than 8 m PZ at rich loading, about 50% faster than 7 m MEA. kg′ for MPZ is the same to 7 m MEA. Heat of CO2 absorption for PZ-MPZ (ΔHabs=70 kJ/mol) and MPZ (72 kJ/mol) is close to that for PZ (70 kJ/mol).
# In FIG. 5, absorption/desorption rates for PZ-MPZ at 40° C., 60° C., 80° C. and 100° C. are compared with that of 7 m MEA and 8 m PZ at 40° C.
# In FIG. 13 and FIG. 14, absorption/desorption rates for 1-MPZ and the PZ blend at 40° C., 60° C., 80° C. and 100° C. are compared with that of 7 m MEA and 8 m PZ at 40° C.
# [6] = CO2 solubility (CO2 partial pressure) measured in the wetted wall column; assay type: physicochemical
# Text: as §1
# CO2 solubility for PZ-MPZ and MPZ are shown in FIG. 3 and FIG. 4, respectively. The filled points are experimental data at varied loadings and temperatures. Parameters for the following semi-empirical VLE equation (Equation 3) were regressed and the model was presented as solid curves in the figures. The curves fit the points satisfactorily. ln P=a+b/T+c·α+d·α/T+e·α^2 Eqn. 3
# CO2 solubility for 1-MPZ and the PZ blend are shown in FIG. 11 and FIG. 12 respectively. The filled points are experimental data at varied loadings and temperatures. Parameters for the following semi-empirical VLE equation ln P=a+b/T+c·α+d·α/T+e·α^2 (Eqn. 3) were regressed and the model was presented as curves in the figures. α is the CO2 loading defined as nCO2/nalka. The curves fit the points satisfactorily.
# [7] = 298K; cited from earlier work
# [8] = Thermal degradation in sealed stainless steel cylinders at 150° C., loss of original amine over time; assay type: physicochemical; conditions: 8 m 1-MPZ, end of the experiment (30 weeks)
# Description: Samples of each solution were contained in stainless steel, well-sealed cylinders and placed in a forced-convection oven for extended periods of time. The loss of the original amine is tracked over time to determine the rate of thermal degradation.
# The thermal degradation of 8 m 1-MPZ at 150° C. was studied. The main degradation products are PZ, 1,4-DMPZ, formyl amides, and formate.
# The thermal degradation of a blend of 4 m PZ and 4 m 1-MPZ at 150° C. was previously studied. […] Based on the results of the 8 m 1-MPZ experiment discussed above, 1,4-DMPZ was expected to be produced as a degradation product.
# Solutions with varying compositions were placed in thermal cylinders at 150° C. for up to 15 weeks. At this temperature, some degradation will occur, but the conversion between PZ, 1-MPZ, and 1,4-DMPZ should be able to be observed. Three starting solutions were used: 5 m PZ+2 m 1-MPZ+1 m 1,4-DMPZ (5/2/1), 5 m PZ+2.5 m 1-MPZ+0.5 m 1,4-DMPZ (5/2.5/0.5), and 5 m PZ+1.5 m 1-MPZ+[…]. To establish the blend concentrations, it was originally hypothesized that the equilibrium concentration would be 5/2/1. Therefore, that blend, as well as two blends with increased or decreased 1-MPZ concentrations were used and the concentration of 1,4-DMPZ was adjusted to maintain a total concentration of 8 m.
# [9] = ambient temperature; cited from earlier work
structure (smiles),measurement,setting,value
CC(C)(N)CO [AMP],ΔHabs@PCO2 = 1.5 kPa,[1],73 kJ/mol
same,CO2 Capacity,[2],0.96 mol/kg (water + amine)
NCCN1CCNCC1 [AEP],ΔHabs@PCO2 = 1.5 kPa,[1],72 kJ/mol
same,CO2 Capacity,[2],0.66 mol/kg (water + amine)
"CN1CCNCC1 [1-MPZ, 1-methyl piperazine]",miscibility with water,[3],fully miscible with water
same,heat absorption of CO2,[1]; at 1.5 kPa CO2 partial pressure,67 kJ/mol
same,precipitation when mixing only the amine in water,[4],no precipitation
same,absorption/desorption rate compared with 8 m PZ and 7 m MEA,"[5]; 0.5 kPa to 5 kPa CO2 partial pressure, comparators at 40° C.",nearly the same as 8 m PZ and much higher than 7 m MEA
same,PCO2,"[6]; Temp 40° C., CO2 Loading 0.10 mol/mol alka, 8 m 1-MPZ",0.10 kPa
same,PCO2,"[6]; Temp 40° C., CO2 Loading 0.20 mol/mol alka, 8 m 1-MPZ",1.32 kPa
same,PCO2,"[6]; Temp 40° C., CO2 Loading 0.26 mol/mol alka, 8 m 1-MPZ",5.55 kPa
same,PCO2,"[6]; Temp 40° C., CO2 Loading […] alka, 8 m 1-MPZ",0.35 kPa
same,PCO2,"[6]; Temp 60° C., CO2 Loading 0.10 mol/mol alka, 8 m 1-MPZ",0.62 kPa
same,PCO2,"[6]; Temp 60° C., CO2 Loading 0.20 mol/mol alka, 8 m 1-MPZ",6.41 kPa
same,PCO2,"[6]; Temp 60° C., CO2 Loading 0.26 mol/mol alka, 8 m 1-MPZ",22.95 kPa
same,PCO2,"[6]; Temp 60° C., CO2 Loading […] alka, 8 m 1-MPZ",2.15 kPa
same,PCO2,"[6]; Temp 80° C., CO2 Loading 0.10 mol/mol alka, 8 m 1-MPZ",3.66 kPa
same,PCO2,"[6]; Temp 80° C., CO2 Loading 0.20 mol/mol alka, 8 m 1-MPZ",25.30 kPa
same,PCO2,"[6]; Temp 80° C., CO2 Loading […] alka, 8 m 1-MPZ",10.10 kPa
same,PCO2,"[6]; Temp 100° C., CO2 Loading 0.10 mol/mol alka, 8 m 1-MPZ",12.84 kPa
same,PCO2,"[6]; Temp 100° C., CO2 Loading […] alka, 8 m 1-MPZ",33.01 kPa
same,first pKa,[7],9.14
same,second pKa,[7],4.63
same,initial carbon not recovered in the form of the listed products,[8],21%
same,cyclic CO2 capacity,"[2]; difference between lean and rich CO2 loading at 500 Pa and 5,000 Pa CO2 partial pressure",0.83 mol CO2/kg (water+amine)
"CC(N)CN (stereo not shown) [1,2-diaminopropane]",solids precipitation,"[3]; rich conditions, 8 m",precipitates solids
"CC1CNCCN1 (racemic) [2MPZ, 2-methyl piperazine]",Heat of CO2 absorption (ΔHabs),"[1]; 8 m MPZ, 4 m PZ/4 m MPZ blend, 8 m PZ",72 kJ/mol
same,ΔHabs@PCO2 = 1.5 kPa,[1],72 kJ/mol
same,absorption/desorption rate (kg′) compared with PZ and MEA,"[5]; 0.5 kPa to 5 kPa P*CO2, comparators 7 m MEA and 8 m PZ at 40° C.",between MEA and PZ
same,PCO2,"[6]; Temp 40° C., CO2 Loading 0.102 mol/mol alka, 8 m MPZ",0.01 kPa
same,PCO2,"[6]; Temp 40° C., CO2 Loading 0.154 mol/mol alka, 8 m MPZ",0.04 kPa
same,PCO2,"[6]; Temp 40° C., CO2 Loading 0.203 mol/mol alka, 8 m MPZ",0.12 kPa
same,PCO2,"[6]; Temp 40° C., CO2 Loading 0.253 mol/mol alka, 8 m MPZ",0.32 kPa
same,PCO2,"[6]; Temp 40° C., CO2 Loading 0.3 mol/mol alka, 8 m MPZ",0.96 kPa
same,PCO2,"[6]; Temp 40° C., CO2 Loading 0.365 mol/mol alka, 8 m MPZ",4.73 kPa
same,PCO2,"[6]; Temp 60° C., CO2 Loading 0.102 mol/mol alka, 8 m MPZ",0.09 kPa
same,PCO2,"[6]; Temp 60° C., CO2 Loading 0.154 mol/mol alka, 8 m MPZ",0.29 kPa
same,PCO2,"[6]; Temp 60° C., CO2 Loading 0.203 mol/mol alka, 8 m MPZ",0.86 kPa
same,PCO2,"[6]; Temp 60° C., CO2 Loading 0.253 mol/mol alka, 8 m MPZ",2.26 kPa
same,PCO2,"[6]; Temp 60° C., CO2 Loading 0.3 mol/mol alka, 8 m MPZ",4.87 kPa
same,PCO2,"[6]; Temp 60° C., CO2 Loading 0.365 mol/mol alka, 8 m MPZ",22.41 kPa
same,PCO2,"[6]; Temp 80° C., CO2 Loading 0.102 mol/mol alka, 8 m MPZ",0.59 kPa
same,PCO2,"[6]; Temp 80° C., CO2 Loading 0.154 mol/mol alka, 8 m MPZ",1.80 kPa
same,PCO2,"[6]; Temp 80° C., CO2 Loading 0.203 mol/mol alka, 8 m MPZ",4.06 kPa
same,PCO2,"[6]; Temp 80° C., CO2 Loading 0.253 mol/mol alka, 8 m MPZ",9.72 kPa
same,PCO2,"[6]; Temp 80° C., CO2 Loading 0.3 mol/mol alka, 8 m MPZ",22.06 kPa
same,PCO2,"[6]; Temp 100° C., CO2 Loading 0.102 mol/mol alka, 8 m MPZ",2.68 kPa
same,PCO2,"[6]; Temp 100° C., CO2 Loading 0.154 mol/mol alka, 8 m MPZ",7.39 kPa
same,PCO2,"[6]; Temp 100° C., CO2 Loading 0.203 mol/mol alka, 8 m MPZ",18.65 kPa
same,solubility over CO2 loading,,highly soluble over the full range of CO2 loading
same,CO2 Capacity,[2],0.93 mol/kg (water + amine)
NCCOCCO [DGA ®],ΔHabs@PCO2 = 1.5 kPa,[1],81 kJ/mol
same,CO2 Capacity,[2],0.38 mol/kg (water + amine)
"NCCO [MEA, monoethanolamine]",ΔHabs@PCO2 = 1.5 kPa,[1],82 kJ/mol
same,CO2 Capacity,[2],0.47 mol/kg (water + amine)
"CN1CCN(C)CC1 [1,4-DMPZ, 1,4-dimethyl-piperazine]",precipitation when mixing only the amine in water,[4],no precipitation
OCCC1CCCCN1 (stereo not shown) [2-PE],ΔHabs@PCO2 = 1.5 kPa,[1],73 kJ/mol
same,CO2 Capacity,[2],1.23 mol/kg (water + amine)
OCCN1CCNCC1 [HEP],ΔHabs@PCO2 = 1.5 kPa,[1],69 kJ/mol
same,CO2 Capacity,[2],0.68 mol/kg (water + amine)
C1CNCCN1.O.O.O.O.O.O [piperazine hexahydrate],solubility in water,[9],about 2 moles/kg H2O
